Reference: US8754118B2, “Atropisomer of pyrrole derivative” (Daiichi Sankyo Company, Limited, priority 2007, dated 2014)

Key:
[1] = Plasma pharmacokinetics after oral administration to cynomolgus monkeys (LC-MS/MS); format: in vivo; conditions: male cynomolgus monkey, 3 mg/kg to the stomach in 0.5% MC, fasted; for Cmax: po, read-out: Cmax: Maximum concentration
Description: Cynomolgus monkeys (male) were used, and the monkeys were fasted from one day before the test compound was administered. The administration sample was prepared by adding a 0.5% MC (methyl cellulose) solution to the test compound such that the dose was 3 mg/2 mL/kg. Each administration sample was administered to the stomach of the cynomolgus monkey using a tube. After the sample was administered, about 5 mL of water was administered. Each administration sample was administered to three cynomolgus monkeys in one group.
As for blood collection, about 1 mL of blood was collected from the femoral vein before administration, and […] 1, 2, 4, 6, 8, 24 and 48 hours after administration using an injection syringe treated with heparin. The collected blood was centrifuged (15,000×g, […], 4° C.) to obtain plasma. The obtained plasma was stored in a freezer (−20° C.) until pretreatment.
Preparation of Standard Solution and Internal Standard (IS) Solution: Each test compound was dissolved in acetonitrile, whereby a 1 mg/mL solution of each test compound was prepared. A standard solution was prepared by diluting each compound solution with acetonitrile. Further, sodium warfarin (Wako Pure Chemical Industries, Ltd.) was dissolved in acetonitrile to prepare a 500 ng/mL IS solution. Pretreatment of Plasma Sample: 50 μL of the plasma sample was taken out and 50 μL of acetonitrile was added thereto. For a calibration curve, 50 μL of each standard solution (acetonitrile solution) was added to 50 μL of the blank plasma. To all the samples, 150 μL of the IS acetonitrile solution was added, and the mixture was stirred, and then centrifuged (about 1,800×g, 30 min, 4° C.). After filtration was performed with Sirocco Protein Precipitation Plate (Waters Corporation), the filtrate was appropriately diluted with a mobile phase to prepare an LC-MS/MS analysis sample. Determination of Test Compound: The plasma concentration of each test compound was analyzed by the LC-MS/MS method. [HPLC Analysis Conditions]
Analysis: A pharmacokinetics parameter was calculated from the plasma concentration of each agent using WinNonlin Professional (Ver. 4.0.1, Pharsight Corporation). Incidentally, Noncompartment model was used as a model for calculation of the parameter.

[2] = target: T1, human mineralocorticoid receptor (hMR) ligand-binding domain (GAL4-hMR receptor) (Homo sapiens, UniProt P08235); assay: GAL4-hMR luciferase reporter assay in HEK293 cells in the presence of 1 nM aldosterone (mineralocorticoid receptor antagonistic activity); format: cell-based; conditions: for IC50: concentration giving Imax/2, HEK293, 1 nM aldosterone present, overnight incubation, read-out: ICmax50; for Imax: maximum value from the graph of relative luciferase activity, DMSO control = 0%, 1 nM aldosterone control = 100%
T1 construct: expressed in transfected cells; host or cells: HEK293
T1 sequence (P08235 726-964 limits assumed): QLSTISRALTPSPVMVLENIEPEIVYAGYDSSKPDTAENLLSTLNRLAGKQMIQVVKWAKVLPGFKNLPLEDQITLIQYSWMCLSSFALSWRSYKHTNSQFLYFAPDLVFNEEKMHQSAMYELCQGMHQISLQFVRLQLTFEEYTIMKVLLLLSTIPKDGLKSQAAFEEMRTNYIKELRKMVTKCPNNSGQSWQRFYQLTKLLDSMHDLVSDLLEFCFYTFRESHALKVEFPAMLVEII
From the text: A plasmid pM-hMR-LBD which is obtained by ligation of a ligand-binding domain (LBD, corresponding to a region of about 308 amino acids at the carboxy terminus) of human mineralocorticoid receptor (hMR, NM_000901) to a DNA-binding domain (corresponding to a region of 147 amino acids at the amino terminus) of a yeast transcription factor GAL4 and expresses GAL4-hMR receptor was constructed. Using a reporter plasmid which has a sequence binding to the DNA-binding domain of GAL4 (UAS sequence) and contains a luciferase gene (such as pFR-Luc, a plasmid available from Stratagene Cloning Systems), a reporter assay was performed.
The previously obtained plasmid pM-hMR-LBD and the reporter plasmid were transfected into a human fetus-derived renal cell line HEK293 by the lipofection method. On the following day, the cells were treated with trypsin and collected. A white 96-well plate (manufactured by Costar, Inc.) was prepared, and the cells were dispensed into each well in an amount of 95 μL using a DMEM medium containing 5% FBS (fetal bovine serum) which had been treated with activated charcoal.
As for each test compound, solutions obtained by dissolving the test compound in dimethyl sulfoxide at predetermined concentrations were used, and the solutions were appropriately diluted with medium and added to the cells in the white 96-well plate to give a final concentration of 0.1%. When the test compound was added, 1 nM aldosterone was allowed to be present. A well group to which dimethyl sulfoxide was added was assigned Control 1 group; and a well group to which 1 nM aldosterone was added was assigned Control 2 group. After the addition, the plate was incubated overnight.
On the following day, the medium was removed, and a luciferase substrate (Wako Pure Chemical Industries, Ltd.) was prepared according to the package insert and added to each well in an amount of 50 μL, and then, the plate was stirred for about 30 minutes. The luminescence intensity of each well was measured using Analyst (manufactured by Molecular Devices Corporation) and taken as the luciferase activity. The luciferase activity value of Control 1 group was taken as 0%, the luciferase activity value of Control 2 group was taken as 100%, and relative luciferase activity values for the respective doses of the test compound in the test compound addition group were plotted to create a graph. From the graph, the maximum value was calculated as Imax (%), and the concentration of the test compound showing the value of Imax/2 was calculated as ICmax50 (M). In Table 1, ICmax50 values are shown.

| AUC: Area under the plasma concentration versus time curve (0-48 hr.) [1] [ng·h/mL] | Cmax [1] [ng/mL] | IC50 [2] [nM] | Imax [2] [%] | Structure (SMILES) |
| --- | --- | --- | --- | --- |
| 33 | 2 | 5.3 | 97 | COc1ccc(-c2c(C)c(C(=O)Nc3ccc(S(C)(=O)=O)cc3)cn2CCO)c(C(F)(F)F)c1 (racemic) [Example 5, (+/−)-1-(2-hydroxyethyl)-5-[4-methoxy-2-(trifluoromethyl)phenyl]-4-methyl-N-[4-(methylsulfonyl)phenyl]-1H-pyrrole-3-carboxamide] |
| 7667 | 380 | – | 105 | Cc1c(C(=O)Nc2ccc(S(C)(=O)=O)cc2)cn(CCO)c1-c1ccccc1C(F)(F)F (racemic) [Example 3, (+/−)-1-(2-hydroxyethyl)-4-methyl-N-[4-(methylsulfonyl)phenyl]-5-[2-(trifluoromethyl)phenyl]-1H-pyrrole-3-carboxamide] |
| 3446 | 184 | 2.6 | 123 | Cc1c(C(=O)Nc2ccc(S(C)(=O)=O)cc2)cn(C)c1-c1ccccc1C(F)(F)F (single isomer, unassigned) [Isomer B, (+)-1,4-dimethyl-N-[4-(methylsulfonyl)phenyl]-5-[2-(trifluoromethyl)phenyl]-1H-pyrrole-3-carboxamide] |
| – | – | > 1000 | – | Cc1c(C(=O)Nc2ccc(S(C)(=O)=O)cc2)cn(CCO)c1-c1ccccc1C(F)(F)F (single isomer, unassigned) [Isomer C, (+)-1-(2-hydroxyethyl)-4-methyl-N-[4-(methylsulfonyl)phenyl]-5-[2-(trifluoromethyl)phenyl]-1H-pyrrole-3-carboxamide] |
| 26390 | 1330 | 2.4 | 99 | Cc1c(C(=O)Nc2ccc(S(C)(=O)=O)cc2)cn(CCO)c1-c1ccccc1C(F)(F)F (single isomer, unassigned) [Isomer D, (−)-1-(2-hydroxyethyl)-4-methyl-N-[4-(methylsulfonyl)phenyl]-5-[2-(trifluoromethyl)phenyl]-1H-pyrrole-3-carboxamide] |

More lines, now with the values behind:

| Structure (SMILES) | AUC: Area under the plasma concentration versus time curve (0-48 hr.) [1] [ng·h/mL] | Cmax [1] [ng/mL] | IC50 [2] [nM] | Imax [2] [%] |
| --- | --- | --- | --- | --- |
| COc1ccc(-c2c(C)c(C(=O)Nc3ccc(S(C)(=O)=O)cc3)cn2CCO)c(C(F)(F)F)c1 (single isomer, unassigned) [Isomer E, (−)-1-(2-hydroxyethyl)-5-[4-methoxy-2-(trifluoromethyl)phenyl]-4-methyl-N-[4-(methylsulfonyl)phenyl]-1H-pyrrole-3-carboxamide] | 7187 | 681 | 1.8 | 115 |
| Cc1c(C(=O)Nc2ccc(S(C)(=O)=O)cc2)cn(C)c1-c1ccccc1C(F)(F)F (single isomer, unassigned) [Isomer A, (−)-1,4-dimethyl-N-[4-(methylsulfonyl)phenyl]-5-[2-(trifluoromethyl)phenyl]-1H-pyrrole-3-carboxamide] | – | – | > 1000 | – |
| COc1ccc(-c2c(C)c(C(=O)Nc3ccc(S(C)(=O)=O)cc3)cn2CCO)c(C(F)(F)F)c1 (single isomer, unassigned) [Isomer F, (+)-1-(2-hydroxyethyl)-5-[4-methoxy-2-(trifluoromethyl)phenyl]-4-methyl-N-[4-(methylsulfonyl)phenyl]-1H-pyrrole-3-carboxamide] | – | – | > 1000 | – |
| Cc1c(C(=O)Nc2ccc(S(C)(=O)=O)cc2)cn(C)c1-c1ccccc1C(F)(F)F (racemic) [Example 1, (+/−)-1,4-dimethyl-N-[4-(methylsulfonyl)phenyl]-5-[2-(trifluoromethyl)phenyl]-1H-pyrrole-3-carboxamide] | 860 | 42 | 13 | 95 |
